Earlier results as cited in patent publication US5554621A, “Dihydropyridine NPY antagonists: nitrogen heterocyclic derivatives” (Bristol-Myers Squibb Company, priority 1995, dated 1996).

Experiments:
[1] = system: NPY-induced increase in intracellular Ca++ in SK-N-Mc cells
[2] = system: NPY-induced pressor response; conditions: pithed rat
[3] = system: NPY-related increases in diastolic blood pressure; conditions: anesthetized guinea pig
[4] = system: I-125 labeled NPY and PYY in human neuroblastoma cells
Y2 receptor = target: T1, Y2 receptor (Rattus norvegicus, UniProt Q9ERC0); conditions: functional selectivity for Y2 receptor
T1 sequence (Q9ERC0 1-381): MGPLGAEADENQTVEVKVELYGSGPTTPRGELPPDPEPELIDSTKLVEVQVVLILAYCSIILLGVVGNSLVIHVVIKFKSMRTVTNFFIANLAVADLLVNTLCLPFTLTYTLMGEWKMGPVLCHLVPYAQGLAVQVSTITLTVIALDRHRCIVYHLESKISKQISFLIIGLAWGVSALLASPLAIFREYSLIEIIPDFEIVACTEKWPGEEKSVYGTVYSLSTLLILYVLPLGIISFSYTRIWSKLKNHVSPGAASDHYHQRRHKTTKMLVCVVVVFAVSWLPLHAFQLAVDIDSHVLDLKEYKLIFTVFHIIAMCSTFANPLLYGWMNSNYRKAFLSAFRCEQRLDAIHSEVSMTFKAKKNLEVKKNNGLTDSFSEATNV

3H-NPY in rat brain = conditions: read-out: IC50 (displacement of 3H-NPY)
NPY1 = target: T2, NPY1 (Rattus norvegicus, UniProt P21555)
T2 construct: vasoconstrictive activity of the NPY1 agonist
T2 sequence (P21555 1-382): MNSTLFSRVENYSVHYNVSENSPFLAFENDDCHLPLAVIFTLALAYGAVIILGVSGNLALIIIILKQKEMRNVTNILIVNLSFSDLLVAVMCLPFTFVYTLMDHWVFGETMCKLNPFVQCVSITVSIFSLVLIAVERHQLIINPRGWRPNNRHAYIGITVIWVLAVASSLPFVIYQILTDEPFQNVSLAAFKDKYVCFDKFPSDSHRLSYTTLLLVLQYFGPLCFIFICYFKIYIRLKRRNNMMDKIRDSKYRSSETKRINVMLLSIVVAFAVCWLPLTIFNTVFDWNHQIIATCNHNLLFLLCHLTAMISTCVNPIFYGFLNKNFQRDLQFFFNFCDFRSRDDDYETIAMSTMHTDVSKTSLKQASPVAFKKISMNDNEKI

[5] = system: NPY-induced contractions in guinea pig basilar artery

In the case of `N=C(N)NCCC[C@@H](NC(=O)C(c1ccccc1)c1ccccc1)C(=O)NCc1ccc(O)cc1` [BIBP 3226], the “Antagonism of NPY-induced increase in intracellular Ca++” value [1] is listed as “antagonized” and the “Antagonism of NPY-induced pressor response” value [2] is listed as “antagonizing”.

In the case of `CN(C)CC1CCC(CNC(=N)c2ccc(CC(NC(=O)C(Cc3ccccc3)NS(=O)(=O)c3ccc4ccccc4c3)C(=O)N3CCCC3)cc2)CC1` (stereo not drawn) [SR 120819A], the “Antagonism of NPY-related increases in diastolic blood pressure” value [3] is given as “antagonized” and the “Displacement of I-125 labeled NPY and PYY” value [4] is given as “displacing”.

In the case of `N=C(N)N(CCCCCCNCc1ccc2ccccc2c1)CCCCCCN(CCCCCCNCc1ccc2ccccc2c1)C(=N)N` [Example 6b], the “Effect against NPY2 agonist NPY13-36” value (Y2 receptor) is given as “antagonized the effect”, the IC50 (3H-NPY in rat brain) is given as 18.4 µM and the “Effect on vasoconstrictive activity of NPY1 agonist [Leu31, Pro34]NPY” value (NPY1) is given as “no effect”. For the same molecule, the Functional antagonism (rat femoral artery) was “functional antagonism”.

For `O=P(O)(O)O[C@@H]1[C@H](OP(=O)(O)O)[C@H](O)[C@@H](O)[C@H](O)[C@H]1OP(=O)(O)O` [D-Myo-inositol-1,2,6-triphosphate], the “Antagonism of NPY-induced contractions” value [5] is given as “potent but non-competitive antagonist”.
